# Source: patent publication US6864076B2, “Antifungal proteins, DNA coding therefore, and hosts incorporating same” (Syngenta Mogen B.V., priority 1997, dated 2005)
# Experiments:
# Experiment in all cases: Oxidase activity (4-AAP/peroxidase, H2O2 production at 510 nm), Michaelis-Menten kinetics with glucose
# [1] = target: glucose oxidase (GOX) from Aspergillus niger (Sigma, G 2133) (Aspergillus niger, UniProt P13006); assay type: biochemical; conditions: substrate glucose, 50 mM potassium phosphate pH 7.0, 25 μM FAD, 45 ng GOX per assay
# glucose oxidase (GOX) from Aspergillus niger (Sigma, G 2133), sequence (P13006 17-605): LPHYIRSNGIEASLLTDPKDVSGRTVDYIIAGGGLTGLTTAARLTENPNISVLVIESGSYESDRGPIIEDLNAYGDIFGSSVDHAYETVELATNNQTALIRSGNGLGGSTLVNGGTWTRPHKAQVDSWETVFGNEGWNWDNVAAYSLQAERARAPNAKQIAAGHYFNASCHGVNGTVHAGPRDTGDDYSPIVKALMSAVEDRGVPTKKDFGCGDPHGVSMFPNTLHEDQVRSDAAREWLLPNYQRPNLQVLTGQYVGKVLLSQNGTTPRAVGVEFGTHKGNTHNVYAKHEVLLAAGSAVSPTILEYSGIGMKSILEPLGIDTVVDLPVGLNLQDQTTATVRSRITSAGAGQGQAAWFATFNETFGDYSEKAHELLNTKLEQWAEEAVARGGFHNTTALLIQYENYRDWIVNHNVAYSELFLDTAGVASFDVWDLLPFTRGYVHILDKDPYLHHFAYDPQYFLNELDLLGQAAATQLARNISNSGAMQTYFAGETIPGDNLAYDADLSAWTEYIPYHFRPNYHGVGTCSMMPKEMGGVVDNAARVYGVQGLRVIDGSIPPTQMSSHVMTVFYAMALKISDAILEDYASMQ
# Procedure: (§1) Oxidase activity was measured utilizing the reagent 4-amino-antipyrine (4-AAP), based on Gallo, 1981 (Gallo, Methods in Enzymology, 71:665-668, 1981). A reaction volume of 500 μl contained 50 mM potassium phosphate buffer pH 7.0, 25 μM FAD, 10 mM NaN3, 0.01% Triton X-100, 6 mM 2,4,6,tribromohydroxybenzoic acid, 2 mM 4-AAP, and 10 units horseradish peroxidase. Hydrogenperoxide production was measured at 510 nm. Known amounts of hydrogen peroxide were included for calibration.
# [2] = target: T1, MS59 carbohydrate oxidase from sunflower (Helianthus annuus), SEQ ID NO: 16 (Helianthus annuus, UniProt A0A9K3EIF7); assay type: biochemical, sunflower (Helianthus annuus cv. zebulon); conditions: substrate glucose; 50 mM potassium phosphate pH 7.0, 25 μM FAD; 17 ng MS59 per assay; per mg protein
# T1 sequence (A0A9K3EIF7 29-538): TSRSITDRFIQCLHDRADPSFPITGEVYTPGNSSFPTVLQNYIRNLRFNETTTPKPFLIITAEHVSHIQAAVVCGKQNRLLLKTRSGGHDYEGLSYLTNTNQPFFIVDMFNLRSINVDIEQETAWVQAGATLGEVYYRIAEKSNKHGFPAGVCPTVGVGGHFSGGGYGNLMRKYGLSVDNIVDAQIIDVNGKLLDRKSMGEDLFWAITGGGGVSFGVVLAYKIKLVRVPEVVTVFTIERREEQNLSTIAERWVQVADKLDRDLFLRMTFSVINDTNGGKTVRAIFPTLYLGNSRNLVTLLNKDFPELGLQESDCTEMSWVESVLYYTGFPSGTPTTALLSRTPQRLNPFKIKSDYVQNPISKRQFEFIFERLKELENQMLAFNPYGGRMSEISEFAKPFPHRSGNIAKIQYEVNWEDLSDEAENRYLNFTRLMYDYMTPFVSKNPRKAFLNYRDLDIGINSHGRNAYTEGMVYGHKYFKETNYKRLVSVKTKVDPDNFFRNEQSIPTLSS
# Procedure: as §1
# [3] = target: T2, WL64 carbohydrate oxidase from lettuce (Lactuca sativa), SEQ ID NO: 58 (Lactuca sativa, UniProt Q8SA60); assay type: biochemical, lettuce (Lactuca sativa cv. Lollo bionda); conditions: substrate glucose; 50 mM potassium phosphate pH 7.0, 25 μM FAD; 29 ng WL64 per assay; per mg protein
# T2 sequence (Q8SA60 28-540): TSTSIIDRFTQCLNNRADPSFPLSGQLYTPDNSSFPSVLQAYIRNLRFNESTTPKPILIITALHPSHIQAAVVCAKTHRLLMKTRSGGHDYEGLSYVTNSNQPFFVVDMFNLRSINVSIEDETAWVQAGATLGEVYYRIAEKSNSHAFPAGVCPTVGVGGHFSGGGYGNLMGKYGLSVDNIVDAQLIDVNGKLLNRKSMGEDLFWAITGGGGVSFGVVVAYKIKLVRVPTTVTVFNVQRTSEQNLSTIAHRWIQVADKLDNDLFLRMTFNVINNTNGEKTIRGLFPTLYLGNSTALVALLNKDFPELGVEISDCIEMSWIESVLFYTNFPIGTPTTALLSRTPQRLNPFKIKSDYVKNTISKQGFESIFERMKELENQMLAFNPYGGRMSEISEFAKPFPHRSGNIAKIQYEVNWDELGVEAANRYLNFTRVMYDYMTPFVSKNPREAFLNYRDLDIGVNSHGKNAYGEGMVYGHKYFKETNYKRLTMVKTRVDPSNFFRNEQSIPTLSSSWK
# Procedure: as §1
smiles,measurement,setting,value
"OC[C@H]1OC(O)[C@H](O)[C@@H](O)[C@@H]1O (stereo partly shown) [Glucose, glucose]",Km,[1]; Lineweaver-Burk,359 µM
same,Vmax,[1]; per mg protein,9.7 μmolH2O2/min/mg
same,Vmax,[2],16.8 μmolH2O2/min/mg
same,Vmax,[3],5.7 μmolH2O2/min/mg
